Reference: US20180134726A1, “PLANT GROWTH REGULATING COMPOUNDS” (Syngenta Participations AG, priority 2012, published 2018)

What was measured:
[1] = system: Brassica oleracea cv Botrytis (temperate cauliflower Spacestar) seeds; assay: Cauliflower paper germination test under suboptimal conditions; format: in vivo; settings: 25 μM, 10° C. and in the light
Protocol: The effect of compounds of Formula (I) on the germination of Brassica oleracea cv Botrytis or common cauliflower was tested on two types of cauliflowers: temperate types and tropical types. These two types were chosen because they display different sensitivities to the light conditions and temperature during germination. Germination of a sensitive temperate type is inhibited by light at 10° C. while for the tropical types germination at 20° is stimulated by the presence of light. […] The temperate seed batches tested are part of commercially produced seed batches of various varieties which are known to be sensitive to light at 10° C. These seeds were harvested and cleaned according standard commercial procedures. Ready seed batches were used (Ready indicates the processing level of these seeds: they have been cleaned and sized but received no other treatments). The tropical seed batches tested are part of seed batches produced as basic seed (for maintenance of the parental line) and were processed accordingly. Germination was assessed using the standard paper germination test for Brassica: Fifty seeds were placed on blue germination paper, which was moistened with the appropriate solutions, in closed oblong germination boxes. Each condition was tested in duplo. Germination boxes were placed in controlled germination cabinets with the appropriate temperature and light conditions. Germination of seeds was counted at regular intervals. Seeds were considered to be germinated when the radical had protruded the testa and endosperm (radical size approximately 1 mm). Test compounds were dissolved in DMSO at a concentration of 50 mM and stored at −20° C. The strigolactone analogue GR24 (commercially available as a racemic mixture of 2 diastereoisomers, referred to as “synthetic strigolactone GR-24” and first prepared by Johnson A. W. & all, Journal of the Chemical Society, Perkin Transactions 1, 1981, page 1734-1743) was included as positive control. Germination solutions were prepared by diluting the stock solutions with demineralized water till 25 μM. As control solutions demineralized water and a 0.05% v/v DMSO solution were used.

[2] = system: Orobanche cumana Wallr. seeds (race 'F'); assay: Orobanche cumana seed germination test on glass fiber filter paper; format: in vivo; settings: preconditioned seeds, seed lot IN153, 10 days at 20° C. in the dark, mean, N = 5 × 100 seeds
Protocol: The effect of compounds of Formula (I) on germination of Orobanche cumana Wallr. seeds was evaluated on glass fiber filter paper (GFFP) in petri dishes. Seeds were preconditioned at moisture and suitable temperature to become responsive to the specific chemical germination stimulants.
Test compounds were dissolved in DMSO (10 000 mg l^−1) and stored at room temperature in a desiccators with desiccants. The stock solutions were dissolved with deionised water to the appropriate final test concentration.
Seeds of O. cumana race ‘F’ were collected from sunflower fields in Manzanilla (Seville, Spain) in 2008 (seed lot IN153) and stored at room temperature. To separate seeds from heavy organic debris, a modified sucrose floatation technique as described by Hartman & Tanimonure (Plant Disease (1991), 75, p. 494) was applied. Seeds were filled into a separation funnel and stirred in water. When seeds floated to the surface, the water fraction containing heavy debris was discarded. Seeds were re-suspended in 2.5M sucrose solution (specific gravity of 1.20) and heavy debris was allowed to settle down for 60 min. After removing debris, seeds were disinfected in 1% sodium hypochlorite solution and 0.025% (v/v) Tween 20 for 2 min. The seeds were decanted onto two layers of cheesecloth, rinsed with sterile deionised water and re-suspended in sterile deionised water. Two ml of the seed suspension containing approximately 150-400 seeds were spread evenly on two layers of sterile glass fiber filter paper disc ([…]) in Petri dishes (Ø9 cm). After wetting the discs with 3 ml sterile deionised water, petri dishes were sealed with parafilm. Seeds were incubated for 10 days at 20° C. in the dark for seed conditioning. The upper disc with conditioned seeds was briefly dried, transferred to a petri dish lined with a dry GFFP disc, and wetted with 6 ml of the appropriate test solution. The compounds of Formula (I) were tested at concentrations of 0.001, 0.01, and 0.1 mg l^−1. The strigolactone analogue GR24 (commercially available as a mixture of isomers) was included as positive control and 0.001% DMSO as negative control. All treatments were tested in five replicates. Seeds were re-incubated at 20° C. in the dark and examined for germination 10 days later. The radicles of germinated seeds were stained for 5 min with blue ink (MIGROS, Switzerland) in 5% acetic acid according to Long et al. (Seed Science Research (2008), 18, p. 125). After staining, seeds were scanned using a flatbed scanner with an optical resolution of 1200 dpi (PULSTEK, OpticPro ST28) or photographed using a camera stand mounted with a digital SLR camera (Canon EOS 5D). Germination of 100 seeds per replicate was evaluated on digital images. Seeds were considered germinated when the radicle protruded from the seed coat.

[3] = Spacestar seed batch 11B313 (cold-sensitive)
[4] = Spacestar seed batch 11B314 (not cold sensitive)

| SMILES | Gmax (total germination as percentage of sown seeds) [1, 3] [%] | stimulation (extra germination compared to the DMSO treatment, as percentage of the germination in the DMSO treatment) [1, 3] [%] | Gmax (total germination as percentage of sown seeds) [1, 4] [%] | stimulation (extra germination compared to the DMSO treatment, as percentage of the germination in the DMSO treatment) [1, 4] [%] | Germination (%) ([2]; 0.001 mg l^−1) | Germination (%) ([2]; 0.01 mg l^−1) | Germination (%) ([2]; 0.1 mg l^−1) |
| --- | --- | --- | --- | --- | --- | --- | --- |
| CC1=C[C@H](O/C=C2/C(=O)N[C@@H]3c4ccsc4C[C@H]23)OC1=O (racemic) [Compound A3, (3aR*,8bS*)-(3E)-3-[(2R)(4-methyl-5-oxo-2H-furan-2-yl)oxymethylene]-3,3a,4,8b-tetrahydro-1H-thioindeno[1,2-b]pyrrol-2-one] | 75.0 | 38.9 | 94.0 | 9.3 | 87.8 | 85.6 | 84.6 |
| CC1=C[C@H](O/C=C2/C(=O)O[C@@H]3c4ccccc4C[C@H]23)OC1=O [GR24] | 71.5 | 19.2 | 93.5 | 3.3 | 67 | 65 | 78.4 |
